According to patent publication US9278994B2, “Short antimicrobial lipopeptides” (Helix BioMedix Inc., priority 2012, dated 2016):
Converted amounts (≈) assume the structure as drawn. Where a SMILES comes first, the peptide text is derived from it. [ ]: non-standard residue; d: D form. The star is where a group is joined. Stearoyl = CCCCCCCCCCCCCCCCCC(=O)*; Palmitoyl = CCCCCCCCCCCCCCCC(=O)*; Myristoyl = CCCCCCCCCCCCCC(=O)*; Undecanoyl = CCCCCCCCCCC(=O)*; Lauroyl = CCCCCCCCCCCC(=O)*; Decanoyl = CCCCCCCCCC(=O)*; Octanoyl = CCCCCCCC(=O)*

Tests used:
[1] = test system: C. albicans 105
Description: (§1) We conducted the minimal inhibitory concentration (MIC) determination using CLSI (Clinical and Laboratory standard Institute) recommended standard protocol for antimicrobials (Methods for Dilution Antimicrobial Susceptibility Tests for Bacteria That Grow Aerobically; Approved Standard—Ninth Edition).
(§2) 2. Bacterial strains and culture conditions. E. coli UB1005, S. aureus SAP0017 (MRSA) and C. albicans 105 were grown in Mueller Hinton (MH) (Difco, BD Biosciences, MD) agar plates and broth (2 g of beef extract, 17.5 g of acid hydrolysis of casein and 1.5 g of starch per liter) at 37° C. unless otherwise indicated. Bacteria from frozen stock were subcultured onto freshly made MH agar plates prior to susceptibility testing. For P. acnes, the bacterium was grown in BBL™ Brain-Heart infusion (Becton, Dickinson & Company, Sparks Md.) broth or agar plates at 37° C. in anaerobic condition generated using a anaerobic jar and AnaeroGen™ (Oxoid, Basingstoke, Hampshire, England).
(§3) 3. […] The minimal inhibitory concentration (MIC) of each peptide was determined using modified CLSI microtiter broth dilution assay (Methods for Dilution Antimicrobial Susceptibility Tests for Bacteria That Grow Aerobically; Approved Standard—Ninth Edition). An inoculum of 10^5-10^6 colony forming units (CFU)/ml was used or 10^4 CFU/ml for yeast. The MIC value was taken as the lowest peptide concentration at which more than 90% of microbial growth was inhibited after 15 to 20 h of incubation at 37° C. For P. acnes, the incubation was kept under anaerobic condition at 37° C. for 2 weeks before MIC was determined Kill kinetics was performed using a given concentration (about 2-5-fold MIC) of peptide mixed with indicator microorganism. After appropriate dilution the cells were plated on agar plates after defined time intervals and incubated at 37° C. overnight. In the case of P. acnes an extended incubation period was required. The CFU was counted and plotted as survival of bacteria after peptide treatment over time, which indicates the effectiveness of a peptide to kill a microbe.

[2] = test system: E. coli UB1005
Description: as §1, §2, §3

[3] = test system: S. aureus SAP0017 (MRSA)
Description: as §1, §2, §3

[4] = test system: P. acnes; assay type: cell-based, Propionibacterium acnes
Description: as §2, §3

Row | MIC C. albicans [1] [µg/mL] | MIC E. coli [2] [µg/mL] | MIC S. aureus [3] [µg/mL] | MIC P. acnes [4] [µg/mL] | Structure (SMILES)
1 | >2000 | >2000 | >2000 | >2000 | CCCCCCCCCC(=O)N[C@@H](CCCCN)C(=O)N1CCC[C@@H]1C(=O)N[C@H](C(N)=O)[C@@H](C)O [HB2179, Dec-K-dPT-NH2] (Decanoyl-Lys-[dP]-Thr-NH2)
2 | >2000 | >2000 | >2000 | 1000 (≈ 2.02 mM) | CCCCCCCCCC(=O)N[C@@H](CCCCN)C(=O)N1CCC[C@H]1C(=O)N[C@H](C(N)=O)C(C)C [HB2181, Dec-KPV-NH2] (Decanoyl-Lys-Pro-Val-NH2)
3 | >2000 | >2000 | >2000 | >2000 | CCCCCCCCCC(=O)N[C@@H](CCCCN)C(=O)N1CCC[C@@H]1C(=O)N[C@H](C(=O)O)[C@@H](C)O [HB2183, Dec-KdPT-OH] (Decanoyl-Lys-[dP]-Thr-OH)
4 | >2000 | >2000 | >2000 | >2000 | CCCCCCCCCC(=O)N[C@@H](CCCCN)C(=O)N1CCC[C@H]1C(=O)N[C@H](C(=O)O)C(C)C [HB2185, Dec-KPV-OH] (Decanoyl-Lys-Pro-Val-OH)
5 | >2000 | >2000 | >2000 | >2000 | CCCCCCCC(=O)N[C@@H](CCCCN)C(=O)N1CCC[C@H]1C(=O)N[C@H](C(N)=O)C(C)C [HB2188, Octanoyl-KPV-NH2] (Octanoyl-Lys-Pro-Val-NH2)
6 | >2000 | 2000 (≈ 3.92 mM) | 1000 (≈ 1.96 mM) | 256 to 500 | CCCCCCCCCCC(=O)N[C@@H](CCCCN)C(=O)N1CCC[C@H]1C(=O)N[C@H](C(N)=O)C(C)C [HB2189, Undecoyl-KPV-NH2] (Undecanoyl-Lys-Pro-Val-NH2)
7 | >2000 | 250 (≈ 0.477 mM) | 250 (≈ 0.477 mM) | 64 (≈ 0.122 mM) | CCCCCCCCCCCC(=O)N[C@@H](CCCCN)C(=O)N1CCC[C@H]1C(=O)N[C@H](C(N)=O)C(C)C [HB2190, Lauroyl-KPV-NH2] (Lauroyl-Lys-Pro-Val-NH2)
8 | 250 (≈ 0.453 mM) | 500 (≈ 0.906 mM) | 250 (≈ 0.453 mM) | 16 (≈ 0.029 mM) | CCCCCCCCCCCCCC(=O)N[C@@H](CCCCN)C(=O)N1CCC[C@H]1C(=O)N[C@H](C(N)=O)C(C)C [HB2191, Myristoyl-KPV-NH2] (Myristoyl-Lys-Pro-Val-NH2)
9 | 32 (≈ 0.0566 mM) | 64 (≈ 0.113 mM) | 16 (≈ 0.0283 mM) | 1 (≈ 0.00177 mM) | CCCCCCCCCCCCCCC(=O)N[C@@H](CCCCN)C(=O)N1CCC[C@H]1C(=O)N[C@H](C(N)=O)C(C)C [HB2192, Pentadecanoyl-KPV-NH2]
10 | 16 (≈ 0.0263 mM) | >2000 | 16 (≈ 0.0263 mM) | 1 to 2 | CCCCCCCCCCCCCCCCCC(=O)N[C@@H](CCCCN)C(=O)N1CCC[C@H]1C(=O)N[C@H](C(N)=O)C(C)C [HB2194, Stearoyl-KPV-NH2] (Stearoyl-Lys-Pro-Val-NH2)
11 | >2000 | >2000 | >2000 | >2000 | CCCCCCCC(=O)N[C@@H](CCCCN)C(=O)N1CCC[C@@H]1C(=O)N[C@H](C(N)=O)[C@@H](C)O [HB2195, Octanoyl-KdPT-NH2] (Octanoyl-Lys-[dP]-Thr-NH2)
12 | 1000 (≈ 1.95 mM) | 2000 (≈ 3.91 mM) | 1000 (≈ 1.95 mM) | 256 to 500 | CCCCCCCCCCC(=O)N[C@@H](CCCCN)C(=O)N1CCC[C@@H]1C(=O)N[C@H](C(N)=O)[C@@H](C)O [HB2196, Undecoyl-KdPT-NH2] (Undecanoyl-Lys-[dP]-Thr-NH2)
13 | 500 (≈ 0.951 mM) | 1000 (≈ 1.9 mM) | 500 (≈ 0.951 mM) | 128 (≈ 0.243 mM) | CCCCCCCCCCCC(=O)N[C@@H](CCCCN)C(=O)N1CCC[C@@H]1C(=O)N[C@H](C(N)=O)[C@@H](C)O [HB2197, Lauroyl-kdPT-NH2] (Lauroyl-Lys-[dP]-Thr-NH2)
14 | 64 (≈ 0.116 mM) | 128 (≈ 0.231 mM) | 64 (≈ 0.116 mM) | 8 to 16 | CCCCCCCCCCCCCC(=O)N[C@@H](CCCCN)C(=O)N1CCC[C@@H]1C(=O)N[C@H](C(N)=O)[C@@H](C)O [HB2198, Myristoyl-KdPT-NH2] (Myristoyl-Lys-[dP]-Thr-NH2)
15 | 32 (≈ 0.0564 mM) | 64 (≈ 0.113 mM) | 32 (≈ 0.0564 mM) | 2 to 4 | CCCCCCCCCCCCCCC(=O)N[C@@H](CCCCN)C(=O)N1CCC[C@@H]1C(=O)N[C@H](C(N)=O)[C@@H](C)O [HB2199, Pentadecanoyl-KdPT-NH2]
16 | 16 (≈ 0.0275 mM) | 64 (≈ 0.11 mM) | 4 (≈ 0.00687 mM) | 2 (≈ 0.00344 mM) | CCCCCCCCCCCCCCCC(=O)N[C@@H](CCCCN)C(=O)N1CCC[C@@H]1C(=O)N[C@H](C(N)=O)[C@@H](C)O [HB2200, Pal-K-dPT-NH2] (Palmitoyl-Lys-[dP]-Thr-NH2)
17 | 8 (≈ 0.0131 mM) | 128 (≈ 0.21 mM) | 16 (≈ 0.0262 mM) | 1 to 2 | CCCCCCCCCCCCCCCCCC(=O)N[C@@H](CCCCN)C(=O)N1CCC[C@@H]1C(=O)N[C@H](C(N)=O)[C@@H](C)O [HB2201, Stearoyl-K-dPT-NH2] (Stearoyl-Lys-[dP]-Thr-NH2)
18 | >2000 | >2000 | >2000 | >2000 | CCCCCCCCCCCCCCCC(=O)N1CCC[C@H]1C(=O)N[C@H](C(N)=O)C(C)C [HB2205, Pal-PV-NH2] (Palmitoyl-Pro-Val-NH2)
19 | >2000 | >2000 | >2000 | 32 (≈ 0.0728 mM) | CCCCCCCCCCCCCCCC(=O)N1CCC[C@@H]1C(=O)N[C@@H](CO)C(N)=O [HB2207, Pal-dPS-NH2] (Palmitoyl-[dP]-Ser-NH2)
20 | >2000 | >2000 | >2000 | 256 to 1000 | CCCCCCCCCCCCCCCC(=O)N[C@@H](CCCCN)C(=O)N[C@H](C(N)=O)[C@@H](C)O [HB2236, Pal-KT-NH2]
21 | >2000 | >2000 | >2000 | 128 to 256 | CCCCCCCCCCCCCCCC(=O)N[C@@H](CCCCN)C(=O)N[C@@H](C(N)=O)[C@H](C)O [HB2237, Pal-K-dT-NH2]
22 | 16 (≈ 0.0313 mM) | 2 (≈ 0.00391 mM) | 4 (≈ 0.00782 mM) |  | CCCCCCCCCCCCCCCC(=O)N[C@@H](CCCCN)C(=O)N[C@@H](CCCCN)C(N)=O [HB2238, Pal-KK-NH2]
23 | >2000 | >2000 | >2000 | >2000 | CCCCCCCCCCCCCCCC(=O)N[C@@H](CCCCN)C(=O)N[C@H](C(N)=O)C(C)C [HB2239, Pal-KV-NH2] (Palmitoyl-Lys-Val-NH2)
24 | >2000 | >2000 | >2000 | >2000 | CCCCCCCCCCCCCCCC(=O)N[C@@H](CCCCN)C(=O)N[C@@H](C)C(N)=O [HB2240, Pal-KA-NH2] (Palmitoyl-Lys-Ala-NH2)
25 | >2000 | >2000 | >2000 | >2000 | CCCCCCCCCCCCCCCC(=O)N[C@@H](CCCCN)C(=O)N[C@@H](Cc1ccccc1)C(N)=O [HB2241, Pal-KF-NH2]
26 | >2000 | >2000 | 1000 (≈ 2.12 mM) | 128 (≈ 0.272 mM) | CCCCCCCCCCCCCCCC(=O)N[C@@H](CCCCN)C(=O)N[C@@H](CO)C(N)=O [HB2245, Pal-KS-NH2]
27 | >2000 | >2000 | >2000 | >2000 | CCCCCCCCCCCCCCCC(=O)N[C@@H](CCCCN)C(=O)N[C@@H](Cc1ccc(O)cc1)C(N)=O [HB2247, Pal-KY-NH2]
28 | >2000 | >2000 | >2000 |  | CCCCCCCCCCCCCCCC(=O)N[C@@H](CCCCN)C(=O)N[C@@H](CC(=O)O)C(N)=O [HB2252, Pal-KD-NH2] (Palmitoyl-Lys-Asp-NH2)
